ChEMBL document CHEMBL1157233, “5,6:8,9-diepoxy and other cytotoxic sterols from the marine sponge Homaxinella sp” (2006)
Converted amounts (≈) assume the structure as drawn.

What was measured:
Type in all cases: functional
Conditions in all cases: read-out: ED50 (the source's name)
A549 = test: Cytotoxicity against human A549 cells
SK-OV-3 = test: Cytotoxicity against human SKOV3 cells
SK-MEL-2 = test: Cytotoxicity against human SK-MEL-2 cells
XF498 = test: Cytotoxicity against human XF498 cells
HCT-15 = test: Cytotoxicity against human HCT15 cells

Row | Compound | EC50 (A549) | EC50 (SK-OV-3) | EC50 (SK-MEL-2) | EC50 (XF498) | EC50 (HCT-15)
1 | CC[C@@H](/C=C/[C@@H](C)[C@H]1CC[C@H]2C3=C[C@@H](O)[C@@]4(O)C[C@@H](O)CC[C@]4(C)[C@@]3(O)CC[C@]12C)C(C)C | > 5 µg/mL | > 5 µg/mL | > 5 µg/mL | > 5 µg/mL | > 5 µg/mL
2 | CC(C)C/C=C/[C@@H](C)[C@H]1CC[C@H]2C3=C[C@@H](O)[C@@]4(O)C[C@@H](O)CC[C@]4(C)[C@@]3(O)CC[C@]12C | > 5 µg/mL | > 5 µg/mL | > 5 µg/mL | > 5 µg/mL | > 5 µg/mL
3 | CC(C)[C@@H](C)/C=C/[C@@H](C)[C@H]1CC[C@H]2C3=C[C@@H](O)[C@@]4(O)C[C@@H](O)CC[C@]4(C)[C@H]3CC[C@]12C [CEREVISTEROL] | 3.9 µg/mL (≈ 9.06 µM) | 6 µg/mL (≈ 13.9 µM) | 2.8 µg/mL (≈ 6.5 µM) | 3.3 µg/mL (≈ 7.66 µM) | 3 µg/mL (≈ 6.97 µM)
4 | CO[C@@H]1C=C2[C@@H]3CC[C@H]([C@H](C)/C=C/CC(C)C)[C@@]3(C)CC[C@@H]2[C@@]2(C)CC[C@H](O)C[C@]12O | 4.8 µg/mL (≈ 11.1 µM) | 7.1 µg/mL (≈ 16.5 µM) | 3.4 µg/mL (≈ 7.89 µM) | 4 µg/mL (≈ 9.29 µM) | 4.2 µg/mL (≈ 9.75 µM)
5 | CC[C@@H](/C=C/[C@@H](C)[C@H]1CC[C@H]2C3=C[C@@H](O)[C@@]4(O)C[C@@H](O)CC[C@]4(C)[C@H]3CC[C@]12C)C(C)C | > 5 µg/mL | > 5 µg/mL | > 5 µg/mL | > 5 µg/mL | > 5 µg/mL
6 | COc1cccc2c1C(=O)c1c(O)c3c(c(O)c1C2=O)C[C@@](O)(C(=O)CO)C[C@@H]3O[C@H]1C[C@H](N)[C@H](O)[C@H](C)O1 (stereo in doubt) [DOXORUBICIN] | 0.01 µg/mL (≈ 0.0184 µM) | 0.03 µg/mL (≈ 0.0552 µM) | 0.01 µg/mL (≈ 0.0184 µM) | 0.01 µg/mL (≈ 0.0184 µM) | 0.05 µg/mL (≈ 0.092 µM)
7 | CC[C@@H](/C=C/[C@@H](C)[C@H]1CC[C@H]2C3=C[C@@H](OC)[C@@]4(O)C[C@@H](O)CC[C@]4(C)[C@H]3CC[C@]12C)C(C)C | 4.4 µg/mL (≈ 9.59 µM) | 7 µg/mL (≈ 15.3 µM) | 5.2 µg/mL (≈ 11.3 µM) | 3.8 µg/mL (≈ 8.28 µM) | 4.9 µg/mL (≈ 10.7 µM)
8 | CC[C@@H](/C=C/[C@@H](C)[C@H]1CC[C@@H]2[C@]1(C)CC[C@@]13O[C@@]21[C@H](O)[C@@H]1O[C@@]12C[C@@H](O)CC[C@]32C)C(C)C (relative stereo) [HOMAXISTEROL B2] | 1.4 µg/mL (≈ 3.05 µM) | 1.3 µg/mL (≈ 2.83 µM) | 1.1 µg/mL (≈ 2.4 µM) | 1 µg/mL (≈ 2.18 µM) | 1.1 µg/mL (≈ 2.4 µM)
9 | CC(C)C(C)/C=C/[C@@H](C)[C@H]1CC[C@@H]2[C@]1(C)CC[C@@]13O[C@@]21[C@H](O)[C@@H]1O[C@@]12C[C@@H](O)CC[C@]32C (stereo not given in full) | 7.1 µg/mL (≈ 16 µM) | 6.3 µg/mL (≈ 14.2 µM) | 2.7 µg/mL (≈ 6.07 µM) | 3.4 µg/mL (≈ 7.65 µM) | 4.8 µg/mL (≈ 10.8 µM)
10 | CC(C)C/C=C/[C@@H](C)[C@H]1CC[C@H]2C3=C[C@H](O)[C@@]4(O)C[C@@H](O)CC[C@]4(C)[C@H]3CC[C@]12C [HOMAXISTEROL D1] | 3.5 µg/mL (≈ 8.4 µM) | 3.9 µg/mL (≈ 9.36 µM) | 3.1 µg/mL (≈ 7.44 µM) | 3.1 µg/mL (≈ 7.44 µM) | 3.1 µg/mL (≈ 7.44 µM)
11 | CC(C)[C@H](C)/C=C/[C@@H](C)[C@H]1CC[C@H]2C3=C[C@@H](O)[C@@]4(O)C[C@@H](O)CC[C@]4(C)[C@H]3CC[C@]12C | > 5 µg/mL | > 5 µg/mL | > 5 µg/mL | > 5 µg/mL | > 5 µg/mL
12 | CC(C)C/C=C/[C@@H](C)[C@H]1CC[C@@H]2[C@]1(C)CC[C@@]13O[C@@]21[C@H](O)[C@@H]1O[C@@]12C[C@@H](O)CC[C@]32C [HOMAXISTEROL B1] | 3.9 µg/mL (≈ 9.06 µM) | 3.5 µg/mL (≈ 8.13 µM) | 3.1 µg/mL (≈ 7.2 µM) | 3.4 µg/mL (≈ 7.9 µM) | 3.2 µg/mL (≈ 7.43 µM)
13 | CC(C)C/C=C/[C@@H](C)[C@H]1CC[C@H]2C3=CC(=O)[C@@]4(O)C[C@@H](O)CC[C@]4(C)[C@@]3(O)CC[C@]12C [HOMAXISTEROL C1] | 5 µg/mL (≈ 11.6 µM) | 7 µg/mL (≈ 16.3 µM) | 3.9 µg/mL (≈ 9.06 µM) | 3.7 µg/mL (≈ 8.59 µM) | 3.7 µg/mL (≈ 8.59 µM)
14 | CC(C)C/C=C/[C@@H](C)[C@H]1CC[C@H]2C3=C[C@@H](O)[C@@]4(O)C[C@@H](O)CC[C@]4(C)[C@H]3CC[C@]12C | > 5 µg/mL | > 5 µg/mL | > 5 µg/mL | > 5 µg/mL | > 5 µg/mL
